This assay concerns SH-SY5Y M-currents (KCNQ2, KCNQ3 and KCNQ5). The experiment in a line: SH-SY5Y native cell line FLIPR assay (voltage-sensitive dye DiBAC). As to conditions: FLIPR assay, SH-SY5Y native cell line; Table 2; read-out: SH-SY5Y EC50. The assay is classed as cell-based, mouse neuroblastoma, rat glioma hybrid cell line. A digest of the protocol: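 Response is peak DiBAC fluorescence change, normalised to the maximum from a positive control agent, sampled every 30 s over 25 min. Before compound addition, SH-SY5Y cells differentiated with PGE1 plus isomethylbutylxanthine were dye-loaded for 1 h in EBSS with […] DiBAC.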
A word on the EC50: it is the concentration that produces a half-maximal response. Consider `Cc1ccn2c(-c3ccc(F)cc3)c(NC(=O)Cc3ccccc3)nc2c1` [Compound 168, N-(3-(4-fluorophenyl)-7-methylimidazo[1,2-a]pyridin-2-yl)-2-phenylacetamide], for which the EC50 was less than 500 nM.

As to `Cc1ccn2c(-c3ccc(F)cc3)c(NC(=O)CC(C)(C)C)nc2c1` [Compound 169, N-(3-(4-fluorophenyl)-7-methylimidazo[1,2-a]pyridin-2-yl)-3,3-dimethylbutanamide], the concentration giving a half-maximal response (EC50) was less than 500 nM.

Consider `O=C(CC1CCCC1)Nc1nc2ccc(F)cn2c1-c1ccc(OC(F)(F)F)cc1` [Compound 170, 2-cyclopentyl-N-(6-fluoro-3-(4-(trifluoromethoxy)phenyl)imidazo[1,2-a]pyridin-2-yl)acetamide], for which the EC50 was less than 500 nM.

Turning to `O=C(CC1CC1)Nc1nc2ccc(F)cn2c1-c1ccc(OC(F)(F)F)cc1` [Compound 171, 2-cyclopropyl-N-(6-fluoro-3-(4-(trifluoromethoxy)phenyl)imidazo[1,2-a]pyridin-2-yl)acetamide], the concentration giving a half-maximal response (EC50) fell in the range of 500 to 3000 nM.

For `O=C(CCC1CC1)Nc1nc2ccc(F)cn2c1-c1ccc(OC(F)(F)F)cc1` [Compound 172, 3-cyclopropyl-N-(6-fluoro-3-(4-(trifluoromethoxy)phenyl)imidazo[1,2-a]pyridin-2-yl)propanamide], the 50% effective concentration (EC50) fell in the range of 500 to 3000 nM.

As to `O=C(CCC(F)(F)F)Nc1nc2ccc(F)cn2c1-c1ccc(OC(F)(F)F)cc1` [Compound 173, 4,4,4-trifluoro-N-(6-fluoro-3-(4-(trifluoromethoxy)phenyl)imidazo[1,2-a]pyridin-2-yl)butanamide], the EC50 lay within 500 to 3000 nM.

Consider `O=C(CCCC(F)(F)F)Nc1nc2ccc(F)cn2c1-c1ccc(OC(F)(F)F)cc1` [Compound 174, 5,5,5-trifluoro-N-(6-fluoro-3-(4-(trifluoromethoxy)phenyl)imidazo[1,2-a]pyridin-2-yl)pentanamide], for which the EC50 was less than 500 nM.

Turning to `CC(C)(C)CC(=O)Nc1nc2ccc(F)cn2c1-c1ccc(C(C)(C)C#N)cc1` [Compound 175, N-(3-(4-(2-cyanopropan-2-yl)phenyl)-6-fluoroimidazo[1,2-a]pyridin-2-yl)-3,3-dimethylbutanamide], the EC50 was 500 to 3000 nM.

As to `CC(C)(C)CC(=O)Nc1nc2ccc(F)cn2c1-c1cccc(C(C)(C)C#N)c1` [Compound 176, N-(3-(3-(2-cyanopropan-2-yl)phenyl)-6-fluoroimidazo[1,2-a]pyridin-2-yl)-3,3-dimethylbutanamide], the EC50 was 500 to 3000 nM.

As for `CC(C)(C)CC(=O)Nc1nc2ccc(F)cn2c1-c1ccc(C#N)cc1` [Compound 177, N-(3-(4-cyanophenyl)-6-fluoroimidazo[1,2-a]pyridin-2-yl)-3,3-dimethylbutanamide], the EC50 is 500 to 3000 nM.

Turning to `CC(C)(C)CC(=O)Nc1nc2ccc(C(F)(F)F)cn2c1-c1ccc(OC(F)(F)F)cc1` [Compound 178, 3,3-dimethyl-N-(3-(4-(trifluoromethoxy)phenyl)-6-(trifluoromethyl)imidazo[1,2-a]pyridin-2-yl)butanamide], the 50% effective concentration (EC50) is less than 500 nM.

For the compound `CC1(CC(=O)Nc2nc3ccc(F)cn3c2-c2ccc(F)cc2)CCCC1` [Compound 179, N-(6-fluoro-3-(4-fluorophenyl)imidazo[1,2-a]pyridin-2-yl)-2-(1-methylcyclopentyl)acetamide], the EC50 was less than 500 nM.

With `CC(C)(C)C(O)C(=O)Nc1nc2ccc(F)cn2c1-c1ccc(C(F)(F)F)cc1` (centres unmarked) [Compound 181, N-(6-fluoro-3-(4-(trifluoromethyl)phenyl)imidazo[1,2-a]pyridin-2-yl)-2-hydroxy-3,3-dimethylbutanamide], the concentration giving a half-maximal response (EC50) lay in the range of 500 to 3000 nM.

`CC(C)(C)CC(=O)Nc1nc2ccc(F)cn2c1-c1cccc(OC(F)(F)F)c1` [Compound 182, N-(6-fluoro-3-(3-(trifluoromethoxy)phenyl)imidazo[1,2-a]pyridin-2-yl)-3,3 dimethylbutanamide]: the concentration for a half-maximal effect (EC50) is less than 500 nM.

`O=C(Cc1ccc(F)cc1)Nc1nc2ccc(F)cn2c1-c1cccc(OC(F)(F)F)c1` [Compound 183, N-(6-fluoro-3-(3-(trifluoromethoxy)phenyl)imidazo[1,2-a]pyridin-2-yl)-2-(4-fluorophenyl) acetamide]: the EC50 is less than 500 nM.

Take `CC(C)C(C)C(=O)Nc1nc2ccc(F)cn2c1-c1ccc(C(F)(F)F)cc1` (centres unmarked) [Compound 184, N-(6-fluoro-3-(4-(trifluoromethyl)phenyl)imidazo[1,2-a]pyridin-2-yl)-2,3-dimethylbutanamide]: the EC50 was in the range of 500 to 3000 nM.

Turning to `O=C(CC1CCC1)Nc1nc2ccc(F)cn2c1-c1ccc(C(F)(F)F)cc1` [Compound 185, 2-cyclobutyl-N-(6-fluoro-3-(4-(trifluoromethyl)phenyl)imidazo[1,2-a]pyridin-2-yl)acetamide], the EC50 was less than 500 nM.

For the compound `Cc1ccc2nc(NC(=O)Cc3ccc(C(F)(F)F)cc3)c(-c3ccc(F)cc3)n2c1` [Compound 186, N-(3-(4-fluorophenyl)-6-methylimidazo[1,2-a]pyridin-2-yl)-2-(4-(trifluoromethyl)phenyl)acetamide], the EC50 is less than 500 nM.

`Cc1ccn2c(-c3ccc(F)cc3)c(NC(=O)Cc3ccc(C(F)(F)F)cc3)nc2c1` [Compound 187, N-(3-(4-fluorophenyl)-7-methylimidazo[1,2-a]pyridin-2-yl)-2-(4-(trifluoromethyl)phenyl)acetamide]: the EC50 was less than 500 nM.

`CC(C)(C)CCC(=O)Nc1nc2ccc(F)cn2c1-c1ccc(C(F)(F)F)cc1` [Compound 188, N-(6-fluoro-3-(4-(trifluoromethyl)phenyl)imidazo[1,2-a]pyridin-2-yl)-4,4-dimethylpentanamide]: the 50% effective concentration (EC50) is less than 500 nM.

As for `CC(=O)OCC(C)(C)CC(=O)Nc1nc2ccc(F)cn2c1-c1ccc(C(F)(F)F)cc1` [Compound 189, 4-(6-fluoro-3-(4-(trifluoromethyl)phenyl)imidazo[1,2-a]pyridin-2-ylamino)-2,2-dimethyl-4-oxobutyl acetate], the EC50 lay within 3000 to 10000 nM.

As to `CC(C)(CO)CC(=O)Nc1nc2ccc(F)cn2c1-c1ccc(C(F)(F)F)cc1` [Compound 190, N-(6-fluoro-3-(4-(trifluoromethyl)phenyl)imidazo[1,2-a]pyridin-2-yl)-4-hydroxy-3,3-dimethylbutanamide], the concentration for a half-maximal effect (EC50) was in the range of 3000 to 10000 nM.

As to `CC(=O)OCC(C)(C)CC(=O)Nc1nc2ccc(F)cn2c1-c1ccc(OC(F)(F)F)cc1` [Compound 191, 4-(6-fluoro-3-(4-(trifluoromethoxy)phenyl)imidazo[1,2-a]pyridin-2-ylamino)-2,2-dimethyl-4-oxobutyl acetate], the EC50 lay in the range of 3000 to 10000 nM.

Take `CC(C)(CO)CC(=O)Nc1nc2ccc(F)cn2c1-c1ccc(OC(F)(F)F)cc1` [Compound 192, N-(6-fluoro-3-(4-(trifluoromethoxy)phenyl)imidazo[1,2-a]pyridin-2-yl)-4-hydroxy-3,3-dimethylbutanamide]: the EC50 lay within 500 to 3000 nM.

Regarding `CC1(CC(=O)Nc2nc3ccc(F)cn3c2-c2ccc(OC(F)(F)F)cc2)CCCC1` [Compound 193, N-(6-fluoro-3-(4-(trifluoromethoxy)phenyl)imidazo[1,2-a]pyridin-2-yl)-2-(1-methylcyclopentyl)acetamide], the EC50 was less than 500 nM.

With `O=C(CC1CCC1)Nc1nc2ccc(F)cn2c1-c1ccc(OC(F)(F)F)cc1` [Compound 194, 2-cyclobutyl-N-(6-fluoro-3-(4-(trifluoromethoxy)phenyl)imidazo[1,2-a]pyridin-2-yl)acetamide], the EC50 is less than 500 nM.

With `CC(CC(=O)Nc1nc2ccc(F)cn2c1-c1ccc(OC(F)(F)F)cc1)C(F)(F)F` (centres unmarked) [Compound 195, 4,4,4-trifluoro-N-(6-fluoro-3-(4-(trifluoromethoxy)phenyl)imidazo[1,2-a]pyridin-2-yl)-3-methylbutanamide], the EC50 was less than 500 nM.

With `CC(C)(C)CC(=O)Nc1nc2ccc(F)cn2c1-c1ccc(F)c(C(F)F)c1` [Compound 196, N-(3-(3-(difluoromethyl)-4-fluorophenyl)-6-fluoroimidazo[1,2-a]pyridin-2-yl)-3,3-dimethylbutanamide], the EC50 was less than 500 nM.

For the compound `CC(C)(C)CC(=O)Nc1nc2ccc(F)cn2c1-c1ccc(C#N)c(F)c1` [Compound 197, N-(3-(4-cyano-3-fluorophenyl)-6-fluoroimidazo[1,2-a]pyridin-2-yl)-3,3-dimethylbutanamide], the EC50 was 500 to 3000 nM.

As for `CC(C)(C)CC(=O)Nc1nc2ccc(F)cn2c1-c1ccc(C(F)(F)F)c(F)c1` [Compound 199, N-(6-fluoro-3-(3-fluoro-4-(trifluoromethyl)phenyl)imidazo[1,2-a]pyridin-2-yl)-3,3-dimethylbutanamide], the EC50 is less than 500 nM.

Turning to `COc1ccc(-c2c(NC(=O)CC(C)(C)C)nc3ccc(F)cn23)cc1C(F)(F)F` [Compound 200, N-(6-fluoro-3-(4-methoxy-3-(trifluoromethyl)phenyl)imidazo[1,2-a]pyridin-2-yl)-3,3-dimethylbutanamide], the EC50 is less than 500 nM.

Take `Cc1ccc(-c2c(NC(=O)CC(C)(C)C)nc3ccc(F)cn23)cc1F` [Compound 201, N-(6-fluoro-3-(3-fluoro-4-methylphenyl)imidazo[1,2-a]pyridin-2-yl)-3,3-dimethylbutanamide]: the EC50 is less than 500 nM.

Regarding `CC(C)(C)C(F)(F)C(=O)Nc1nc2ccc(F)cn2c1-c1ccc(C(F)(F)F)cc1` [Compound 202, 2,2-difluoro-N-(6-fluoro-3-(4-(trifluoromethyl)phenyl)imidazo[1,2-a]pyridin-2-yl)-3,3-dimethylbutanamide], the half-maximal effective concentration (EC50) was less than 500 nM.

`O=C(Cc1ccc(F)cc1)Nc1nc2ccccn2c1-c1ccc(F)cc1` [Compound 203, 2-(4-fluorophenyl)-N-(3-(4-fluorophenyl)imidazo[1,2-a]pyridin-2-yl)acetamide]: the EC50 lay within 500 to 3000 nM.

Consider `O=C(Cc1ccc(F)cc1)Nc1nc2ccccn2c1-c1ccc(C(F)(F)F)cc1` [Compound 204, 2-(4-fluorophenyl)-N-(3-(4-(trifluoromethyl)phenyl)imidazo[1,2-a]pyridin-2-yl)acetamide], for which the EC50 is less than 500 nM.

For the origin of these results see US9018208B2, “Heterocycles as potassium channel modulators” (Icagen Inc., priority 2007, dated 2015).
